Laboratory results: patent publication US12247064B2, “Modified ligand-gated ion channels and methods of use” (Howard Hughes Medical Institute, priority 2017, dated 2025)
Read-outs that look alike come from different tables or passages of the source.

Experiments:
α4β2 nAChR [1] = target: T1, α4β2 nAChR (Homo sapiens, UniProt P17787+P43681); assay: Agonist potency at α4β2 nAChR
[2] = tested on: mice expressing PSAM^4-GlyR unilaterally in SNr; assay: Unilateral SNr silencing rotation assay; type: in vivo, mouse; settings: SNr silencing rotation assay in mice
α4β2 nAChR [3] = target: T1, α4β2 nAChR; type: cell-based
From the text: FIGS. 14A-14J show ultrapotent chemogenetic agonists (uPSEMs). […] LED: lowest effective dose for mice in SNr rotation assay. Units: nM; parentheses: SEM. Selectivity relative to PSAM^4-GlyR in bold. […] (FIG. 14E) Response amplitude normalized to ACh.

5HT3-R = target: T2, 5HT3-R (Homo sapiens, UniProt P46098); assay: Agonist potency at 5HT3-R; type: cell-based; settings: read-out: EC50MP
T2 sequence (P46098 24-478): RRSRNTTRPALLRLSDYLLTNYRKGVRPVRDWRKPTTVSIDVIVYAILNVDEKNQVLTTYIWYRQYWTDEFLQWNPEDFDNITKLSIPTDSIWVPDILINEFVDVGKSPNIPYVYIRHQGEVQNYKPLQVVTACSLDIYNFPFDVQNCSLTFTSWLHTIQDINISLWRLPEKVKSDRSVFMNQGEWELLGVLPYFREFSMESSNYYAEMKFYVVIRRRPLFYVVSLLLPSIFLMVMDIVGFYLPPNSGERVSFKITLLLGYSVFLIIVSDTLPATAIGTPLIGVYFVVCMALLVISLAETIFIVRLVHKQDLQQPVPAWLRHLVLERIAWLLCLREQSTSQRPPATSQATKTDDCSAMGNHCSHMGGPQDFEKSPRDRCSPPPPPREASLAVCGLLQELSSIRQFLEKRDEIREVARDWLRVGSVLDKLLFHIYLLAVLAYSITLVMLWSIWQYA

α7-5HT3 = α7-5HT3 (Homo sapiens, UniProt P36544, M226I/T225I)
α7-GlyR = α7-GlyR (Homo sapiens, UniProt P36544)
α7^Q79G-GlyR = target: T3, α7^Q79G-GlyR (Homo sapiens, UniProt P36544, Q79G); type: cell-based; settings: HEK cells; Table 2; read-out: Mean EC50 and SEM in parentheses
T3 construct: expressed in transfected cells; host or cells: HEK cells

α7^Q79A-5HT3 = target: T4, α7^Q79A-5HT3 (Homo sapiens, UniProt P36544, M226I/Q79A/T225I); type: cell-based, human α7 nAChR LBD, murine 5HT3 IPD; settings: HEK cells; Table 1
T4 construct: expressed in transfected cells; host or cells: HEK cells

α7^Q79A-GlyR = target: T5, α7^Q79A-GlyR (Homo sapiens, UniProt P36544, Q79A); type: cell-based; settings: HEK cells; Table 2; read-out: Mean EC50 and SEM in parentheses
T5 construct: expressed in transfected cells; host or cells: HEK cells

α7^Q79S-5HT3 = target: T6, α7^Q79S-5HT3 (Homo sapiens, UniProt P36544, M226I/Q79S/T225I); type: cell-based, human α7 nAChR LBD, murine 5HT3 IPD; settings: HEK cells; Table 1
T6 construct: expressed in transfected cells; host or cells: HEK cells

α7^Q79G-5HT3 = target: T7, α7^Q79G-5HT3 (Homo sapiens, UniProt P36544, M226I/Q79G/T225I); type: cell-based, human α7 nAChR LBD, murine 5HT3 IPD; settings: HEK cells; Table 1
T7 construct: expressed in transfected cells; host or cells: HEK cells

α7-GlyR^A298G = target: T8, α7-GlyR^A298G (Homo sapiens, UniProt P36544, A298G); type: cell-based; settings: HEK cells; Table 2; read-out: Mean EC50 and SEM in parentheses
T8 construct: expressed in transfected cells; host or cells: HEK cells

α7GlyR Q79G G175K Y115F = target: T9, α7GlyR Q79G G175K Y115F (Homo sapiens, UniProt P36544, G175K/Q79G/Y115F); assay: Agonist potency at chimeric channel; type: cell-based; settings: Table 6
T9 construct: expressed in transfected cells

α7GlyR W77F Q79G G175K = target: T10, α7GlyR W77F Q79G G175K (Homo sapiens, UniProt P36544, G175K/Q79G/W77F); assay: Agonist potency at chimeric channel; type: cell-based; settings: Table 6
T10 construct: expressed in transfected cells

α7^R21D,E41R-5HT3 = target: T11, α7^R21D,E41R-5HT3 (Homo sapiens, UniProt P36544, E41R/M226I/R27D/T225I); assay: Whole cell recordings in HEK cells expressing charge reversal channel; type: cell-based; settings: V5 epitope tag
T11 construct: expressed in transfected cells; host or cells: HEK cells

[4] = tested on: α7GlyR G175K / A298G mutant chimeric channels; type: cell-based, human; settings: read-out: Agonist potency

T1 sequence (P43681 29-627 limits assumed): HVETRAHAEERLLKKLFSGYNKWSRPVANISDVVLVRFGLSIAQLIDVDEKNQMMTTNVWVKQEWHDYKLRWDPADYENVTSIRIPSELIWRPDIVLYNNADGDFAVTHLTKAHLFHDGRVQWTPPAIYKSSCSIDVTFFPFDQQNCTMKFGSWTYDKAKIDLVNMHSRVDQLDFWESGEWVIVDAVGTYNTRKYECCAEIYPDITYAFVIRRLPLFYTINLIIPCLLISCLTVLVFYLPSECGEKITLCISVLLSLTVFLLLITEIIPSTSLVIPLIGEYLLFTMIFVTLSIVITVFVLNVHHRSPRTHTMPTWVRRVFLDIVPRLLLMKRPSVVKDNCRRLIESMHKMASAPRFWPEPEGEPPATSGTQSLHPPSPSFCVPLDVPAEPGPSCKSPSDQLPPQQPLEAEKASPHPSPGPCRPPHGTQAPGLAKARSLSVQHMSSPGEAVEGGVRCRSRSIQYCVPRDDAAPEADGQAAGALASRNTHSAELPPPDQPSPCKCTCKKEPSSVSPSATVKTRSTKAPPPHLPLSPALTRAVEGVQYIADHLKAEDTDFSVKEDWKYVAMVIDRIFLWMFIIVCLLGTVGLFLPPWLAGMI
T1 sequence (P17787 26-502): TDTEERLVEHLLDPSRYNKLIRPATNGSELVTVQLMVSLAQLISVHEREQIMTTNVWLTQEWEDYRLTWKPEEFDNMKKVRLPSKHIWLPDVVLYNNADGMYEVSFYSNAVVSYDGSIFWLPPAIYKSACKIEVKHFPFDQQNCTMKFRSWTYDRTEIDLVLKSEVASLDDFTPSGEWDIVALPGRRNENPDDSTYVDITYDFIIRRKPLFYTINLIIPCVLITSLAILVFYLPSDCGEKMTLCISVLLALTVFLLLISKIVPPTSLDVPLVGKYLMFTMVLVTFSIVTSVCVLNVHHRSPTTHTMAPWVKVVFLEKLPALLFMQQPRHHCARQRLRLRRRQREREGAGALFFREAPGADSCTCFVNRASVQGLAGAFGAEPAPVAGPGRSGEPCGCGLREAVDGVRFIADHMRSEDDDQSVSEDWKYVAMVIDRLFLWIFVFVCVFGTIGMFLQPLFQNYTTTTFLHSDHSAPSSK
α7-5HT3, sequence (P36544 with tags, fused parts or gaps T225I/M226I limits assumed): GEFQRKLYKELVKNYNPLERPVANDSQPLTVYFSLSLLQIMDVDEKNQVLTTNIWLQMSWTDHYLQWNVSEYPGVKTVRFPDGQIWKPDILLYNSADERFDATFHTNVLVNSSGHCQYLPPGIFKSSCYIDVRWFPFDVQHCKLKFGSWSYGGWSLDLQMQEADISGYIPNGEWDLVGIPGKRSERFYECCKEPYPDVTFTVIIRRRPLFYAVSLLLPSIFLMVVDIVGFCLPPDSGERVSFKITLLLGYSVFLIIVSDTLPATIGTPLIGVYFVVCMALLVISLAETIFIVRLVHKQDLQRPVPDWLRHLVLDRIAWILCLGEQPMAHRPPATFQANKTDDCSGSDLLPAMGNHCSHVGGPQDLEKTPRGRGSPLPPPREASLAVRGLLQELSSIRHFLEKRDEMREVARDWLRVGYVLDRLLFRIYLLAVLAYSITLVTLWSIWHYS
α7-GlyR, sequence (P36544 with tags, fused parts or gaps): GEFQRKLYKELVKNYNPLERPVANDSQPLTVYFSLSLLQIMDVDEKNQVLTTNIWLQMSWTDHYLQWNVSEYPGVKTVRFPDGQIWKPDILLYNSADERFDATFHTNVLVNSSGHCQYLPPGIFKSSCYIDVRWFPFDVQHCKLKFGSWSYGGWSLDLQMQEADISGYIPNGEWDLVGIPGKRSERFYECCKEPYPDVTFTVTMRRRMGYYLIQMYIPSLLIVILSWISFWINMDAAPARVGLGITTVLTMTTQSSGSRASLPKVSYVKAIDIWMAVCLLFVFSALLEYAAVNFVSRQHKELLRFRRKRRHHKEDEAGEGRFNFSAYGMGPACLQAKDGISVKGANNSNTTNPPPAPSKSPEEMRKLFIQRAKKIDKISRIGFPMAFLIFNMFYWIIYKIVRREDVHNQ
T6 sequence (P36544 with tags, fused parts or gaps Q79S/T225I/M226I limits assumed): as the sequence (P36544 with tags, fused parts or gaps T225I/M226I limits assumed) above, with Q57S counted along it
T10 sequence (P36544 with tags, fused parts or gaps W77F/Q79G/G175K): as the sequence (P36544 with tags, fused parts or gaps) above, with W55F, Q57G, G153K counted along it
T8 sequence (P36544 with tags, fused parts or gaps, stated change not applied): as the sequence (P36544 with tags, fused parts or gaps) above, with A276G counted along it
T3 sequence (P36544 with tags, fused parts or gaps Q79G): as the sequence (P36544 with tags, fused parts or gaps) above, with Q57G counted along it
T11 sequence (P36544 with tags, fused parts or gaps R27D/E41R/T225I/M226I): as the sequence (P36544 with tags, fused parts or gaps T225I/M226I limits assumed) above, with R5D, E19R counted along it
T4 sequence (P36544 with tags, fused parts or gaps Q79A/T225I/M226I limits assumed): as the sequence (P36544 with tags, fused parts or gaps T225I/M226I limits assumed) above, with Q57A counted along it
T7 sequence (P36544 with tags, fused parts or gaps Q79G/T225I/M226I limits assumed): as the sequence (P36544 with tags, fused parts or gaps T225I/M226I limits assumed) above, with Q57G counted along it
T5 sequence (P36544 with tags, fused parts or gaps Q79A): as the sequence (P36544 with tags, fused parts or gaps) above, with Q57A counted along it
T9 sequence (P36544 with tags, fused parts or gaps Q79G/Y115F/G175K): as the sequence (P36544 with tags, fused parts or gaps) above, with Q57G, Y93F, G153K counted along it

## CCCOc1cnc2cc3c(cc2n1)C1CNCC3C1 (stereo not shown) [compound 817]
α4β2 nAChR [1]
  α4β2 nAChR agonism: do not show evident α4β2 nAChR agonism
α4β2 nAChR [1]; read-out: EC50MP
  EC50: > 30000 nM
[2]
  In vivo potency: 0.1 mpk
α4β2 nAChR [3]
  effect on α4β2 nAChR: inhibits
5HT3-R
  EC50: 1500 ± 1000 nM
α7-5HT3; read-out: EC50MP
  EC50: > 100000 nM
α7-GlyR
  EC50: > 100000 nM

## Cn1cc(C(=O)C(=O)NC2CN3CCC2CC3)c2ccccc21 (stereo not shown) [RS56812]
α7^Q79G-GlyR
  EC50: 2000 nM
α7^Q79A-5HT3
  EC50: 6800 nM
α7^Q79A-GlyR
  EC50: 3500 nM
α7^Q79S-5HT3
  EC50: 5700 nM
α7^Q79G-5HT3
  EC50: 1400 nM
α7-5HT3; read-out: Mean EC50, HEK cells, Table 1
  EC50: 10000 nM
α7-GlyR
  EC50: 6500 nM
α7-GlyR^A298G
  EC50: 2300 nM

## c1ccc2c(c1)Sc1ccccc1N2CC1CN2CCC1CC2 (stereo not shown) [Mequitazine, reference compound]
α7GlyR Q79G G175K Y115F
  EC50: > 10000 nM
α7GlyR W77F Q79G G175K
  EC50: 150 nM
α7-5HT3; read-out: Potency, Table 6
  EC50: > 30000 nM

## O=C(NC1CN2CCC1CC2)c1ccc(Cl)cc1 (stereo not shown) [PNU-282987]
α7^R21D,E41R-5HT3
  whole cell responses: potent responses
[4]; α7GlyR Q79G A298G G175K Y115F
  EC50: 9 nM
[4]; α7GlyR Q79G A298G P216I
  EC50: 250 nM
[4]; α7GlyR Q79G A298G Y115F K395 K396A
  EC50: 110 nM
[4]; α7GlyR Q79G G175K A298G
  EC50: 0.36 nM
[4]; α7GlyR Q79G W77F A298G
  EC50: 1630 nM
[4]; α7GlyR R27D E41R Q79G Y115F
  EC50: 340 nM
